# From paper PMC9428149, “Tackling recalcitrant Pseudomonas aeruginosa infections in critical illness via anti-virulence monotherapy” (Nature Communications, 2022)
# Where “and” joins values, the source holds several entries; their conditions need not be identical. Identical values can stand only once. Like-named read-outs stand apart in the source and are kept apart here.
# Experiments:
# [1] = test system: ΔmvfR biofilm; test: Biofilm formation of ΔmvfR mutant (off-target); details: Pseudomonas aeruginosa, PA14, 24 h, read-out: Biofilm formation, ΔmvfR + compound; PA14 about 100; single replicates (Figure 4c)
# Procedure: Biofilm was grown in the 96-well microtiter plate at 37 °C for 24 h containing M63 minimal media in the presence of 10 µM of the compounds or vehicle. The biofilm grown with the vehicle was considered as a control. The percentage value was calculated in comparison to the PA14 control. a–c Data represent at least n = 3, each dot on the graph represents one biological replicate. The number of biological replicates for each compound and strain is depicted in the graph. The error bars denote ±SEM.
# The overnight grown starter culture was diluted 1:1000 in 5 mL LB media in a glass tube and was incubated at 37 °C and 200 rpm in an incubator shaker until the culture reached an OD600nm 3.0. The culture was then diluted at 1:100 in M63 minimal media supplemented with 0.2% glucose, 0.5% Casamino Acids, and 1 mM MgSO4. Initiation of the Biofilm formation was performed in the 96 well plates; 200 µL of diluted culture was added in the wells with (10 µM) or without compounds. The cultures were allowed to grow at 37 °C in static conditions for 24 hours. Thereafter, planktonic culture was removed from the wells, and wells were washed three times with distilled water (DW). Biofilm was stained with 0.1% crystal violet and incubated for 15 min at room temperature (RT). Access dye was removed from the wells and washed off three times with DW, and 200 µL ethanol: acetone (80:20) was added to the wells. The plate was incubated for 30 min at RT, and the OD was measured by spectrophotometry at 570 nm in the infinite F200 plate reader using the Magellan software (Tecan, Switzerland). Percent biofilm formation was calculated in comparison to PA14 culture that was grown in the absence of compounds.
# [2] = test system: pyocyanin production in PA14; test: Pyocyanin production assay; details: Pseudomonas aeruginosa
# [3] = molecular target: T1, MvfR protein (MvfRC87) (Pseudomonas aeruginosa, UniProt Q9I4X0); assay type: binding; details: SPR
# T1 construct: The MvfRC87 protein purified as in Xiao et. al., 2006; made in house
# Procedure: The selected compounds were tested for their ability to bind to MvfR. Target validation was carried out by using surface plasmon resonance (SPR). The MvfRC87 protein purified as in Xiao et. al., 2006[33] was covalently immobilized on a CM7 Series S sensor chip using an amine coupling reagent kit (GE Healthcare) at the range level of 3000 to 5000 response units (RU). RU was analyzed by Biacore T200 evaluation software 2.0 (GE Healthcare). The relative response units (RUs) 5 seconds before the end of the association were extracted from the double-reference-corrected sensor grams at different concentrations. These responses were plotted against their respective concentrations for MvfR inhibitor alone and in the presence of native MvfR ligand PQS and compared to the calculated responses for the mixture expected for different binding sites.
# [4] = test system: 16 MDR P. aeruginosa clinical isolates; test: Pyocyanin production in MDR clinical isolates; details: Pseudomonas aeruginosa, 18 h, Control about 100, replicates
# [5] = test system: MvfR-regulated small molecules in PA14; test: Production of HAQs, 2-AA, DHQ and AA in PA14 cultures (LC-MS); details: for 2-AA / DHQ / HHQ / HQNO / PQS: Figure 5a; for 2-AA / DHQ / HHQ / HQNO / PQS / AA: replicates; for AA: Figure 5b; for activity at 50 µM / IC50 / inhibition at 50 µM: Pseudomonas aeruginosa
# [6] = test system: PA14 isogenic mutant ΔmvfR AT/P cells; test: AT/P cell formation in ΔmvfR mutant (off-target); details: Pseudomonas aeruginosa, PA14, 24 h, read-out: AT/P cell formation, ΔmvfR + compound; PA14 about 100; single replicates (Figure 4b)
# Procedure: Cells were grown in the presence of 10 μg mL^−1 meropenem, with or without 10 µM of the compounds for 24 h. Values were normalized to cells grown for 4 h in the absence of antibiotics and compounds. The ∆mvfR cells grown with antibiotics and vehicles were considered control, and the percentage values were calculated compared to control. c Biofilm formation of mutant ∆mvfR cells with or without compound. […] The number of biological replicates for each compound and strain is depicted in the graph. The error bars denote ±SEM.
# The AT/P cell formation assay was performed according to the method previously described in Starkey et al., 2014 (persister cell assay). The over-day culture was incubated at 37 °C with shaking at 200 rpm until the culture OD600nm was 3.0. The culture was then diluted at 1:100 and grown in the same conditions for 4 h. After 4 h, 200 µL were collected, and serial dilutions were plated on LB agar plates for CFU quantification (as normalizers). The remainder of the culture was treated with meropenem to a final concentration of 100 × MIC (Minimum Inhibitory Concentration; 10 mg L^−1) and compounds at a final concentration of 10 µM. After 24 h, culture aliquots were 10-fold serially diluted in LB broth and plated on LB agar for CFU quantification. The AT/P fraction was determined as the normalizers (pre-antibiotic) ratio divided by the AT/P fraction (24 h post-antibiotic)[22].
# [7] = test system: pqsA promoter (PA14 PpqsA-GFPASV); test: pqsA-GFP reporter expression; assay type: cell-based, Pseudomonas aeruginosa
# [8] = Solubility in iPBS pH 7.4 by HPLC; assay type: physicochemical; details: isotonic phosphate buffer (iPBS)
# Procedure: Solubility of the 10 mM compounds dissolved in DMSO was tested in the isotonic phosphate buffer (iPBS) at pH 7.4 using High-Performance Liquid Chromatography (HPLC). For the preparation of iPBS phosphate-buffered saline tab (Sigma-Aldrich 08057-12Tab-F) is dissolved in 500 mL of deionized water and the final composition of the solution contains 10 mM PBS, 2.7 mM KCl, 140 mM NaCl and 0.05% Tween. A total 10 µL of the compound from a 10 mM stock solution in DMSO was added to the vial, and 190 µL of buffer was added to each vial and mixed with shaking at room temperature for 4 h. Thereafter the samples were filtered, and 160 µL of the sample was mixed with 40 µL of DMSO for the final injection. Ibuprofen (high solubility) and Progesterone (low Solubility) were used as standard compounds. Ammonium Acetate aqueous solution (50 mM, pH 7.4) and the acetonitrile were used as mobile phases A and B, respectively. The measurement of concentration was achieved by comparing of UV absorbance of the sample solution and the known standard solution following an HPLC separation using a generic fast gradient method. The solubility of each compound is expressed by the ratio of compound amount in the sample test solution to the amount of compound in the standard solution.
# [9] = test system: PA14 AT/P cells; test: AT/P cells formation assay in PA14; assay type: cell-based, Pseudomonas aeruginosa; details: Pseudomonas aeruginosa, PA14, 24 h, read-out: inhibition of AT/P cells formation
# T1 sequence (Q9I4X0 87-332): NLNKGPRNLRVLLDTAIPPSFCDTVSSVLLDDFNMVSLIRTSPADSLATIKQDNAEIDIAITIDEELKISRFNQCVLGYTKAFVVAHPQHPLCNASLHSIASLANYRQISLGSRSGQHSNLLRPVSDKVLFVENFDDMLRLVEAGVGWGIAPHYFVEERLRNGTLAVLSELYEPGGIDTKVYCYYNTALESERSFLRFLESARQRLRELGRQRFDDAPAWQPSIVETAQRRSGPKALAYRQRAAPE
smiles,measurement,setting,value
N#Cc1ccc(NC(=O)C(F)C(=O)Nc2ccc(Oc3ccccc3)cc2)cc1 (stereo not shown) [D88],activity at 10 µM,[1],43.6%
same,activity at 50 µM,"[2]; PA14, 18 h, read-out: % Production Pyocyanin",6%
same,IC50,"[2]; PA14, read-out: IC50 pyocyanin production",530 nM
same,Response Unit (RU),[3]; Concentration 1.00E-05 M,36.6 RU
same,Response Unit (RU),[3]; Concentration 1.00E-06 M,18.2 RU
same,Response Unit (RU),[3]; Concentration 1.00E-07 M,5.5 RU
same,Response Unit (RU),[3]; Concentration 1.00E-08 M,0.4 RU
same,Response Unit (RU),[3]; Concentration 3.16E-06 M,28.1 RU
same,Response Unit (RU),[3]; Concentration 3.16E-07 M,10.5 RU
same,Response Unit (RU),[3]; Concentration 3.16E-08 M,2.3 RU
same,activity at 10 µM,"[4]; read-out: Pyocyanin production relative to Control, clinical isolate LGR-4325",17.1%
same,activity at 10 µM,"[4]; read-out: Pyocyanin production relative to Control, clinical isolate LGR-4326",8.91%
same,activity at 10 µM,"[4]; read-out: Pyocyanin production relative to Control, clinical isolate LGR-4327",8.23%
same,activity at 10 µM,"[4]; read-out: Pyocyanin production relative to Control, clinical isolate LGR-4328",27.7%
same,activity at 10 µM,"[4]; read-out: Pyocyanin production relative to Control, clinical isolate LGR-4330",33.3%
same,activity at 10 µM,"[4]; read-out: Pyocyanin production relative to Control, clinical isolate LGR-4331 (first section, r117)",12.7%
same,activity at 10 µM,"[4]; read-out: Pyocyanin production relative to Control, clinical isolate LGR-4331 (second section, r140)",5.55%
same,activity at 10 µM,"[4]; read-out: Pyocyanin production relative to Control, clinical isolate LGR-4333",10.5%
same,activity at 10 µM,"[4]; read-out: Pyocyanin production relative to Control, clinical isolate LGR-4343",12.2%
same,activity at 10 µM,"[4]; read-out: Pyocyanin production relative to Control, clinical isolate LGR-4344",12.7%
same,activity at 10 µM,"[4]; read-out: Pyocyanin production relative to Control, clinical isolate LGR-4348",8.7%
same,activity at 10 µM,"[4]; read-out: Pyocyanin production relative to Control, clinical isolate LGR-4356",10.8%
same,activity at 10 µM,"[4]; read-out: Pyocyanin production relative to Control, clinical isolate LGR-4362",13.9%
same,activity at 10 µM,"[4]; read-out: Pyocyanin production relative to Control, clinical isolate LGR-4363",17.7%
same,activity at 10 µM,"[4]; read-out: Pyocyanin production relative to Control, clinical isolate LGR-4364 (first section, r326)",17.2%
same,activity at 10 µM,"[4]; read-out: Pyocyanin production relative to Control, clinical isolate LGR-4364 (second section, r349)",19.4%
same,2-AA,[5]; Compound 4.88e-8 M,20.87 and 7.96 and 12.86
same,DHQ,[5]; Compound 4.88e-8 M,15.28 and 24.13 and 25.25
same,HHQ,[5]; Compound 4.88e-8 M,-10.38 and -9.83 and -4.34
same,HQNO,[5]; Compound 4.88e-8 M,23.03 and 20.64 and 19.09
same,2-AA,[5]; Compound 9.77e-8 M,21.63 and 8.61 and -0.13
same,DHQ,[5]; Compound 9.77e-8 M,23.53 and 26.23 and 29.13
same,HHQ,[5]; Compound 9.77e-8 M,0.19 and 2.23 and -9.33
same,HQNO,[5]; Compound 9.77e-8 M,18.24 and 19.63 and 16.60
same,PQS,[5]; Compound 9.77e-8 M,1.00 and -2.02 and -4.38
same,2-AA,[5]; Compound 1.95e-7 M,4.17 and 23.60 and 8.88
same,DHQ,[5]; Compound 1.95e-7 M,24.27 and 28.60 and 33.04
same,HHQ,[5]; Compound 1.95e-7 M,-0.13 and 9.98 and 9.62
same,HQNO,[5]; Compound 1.95e-7 M,22.51 and 25.08 and 21.13
same,2-AA,[5]; Compound 3.91e-7 M,26.65 and 26.00 and 18.02
same,DHQ,[5]; Compound 3.91e-7 M,19.73 and 32.57 and 33.17
same,HHQ,[5]; Compound 3.91e-7 M,5.11 and 8.17 and 11.07
same,HQNO,[5]; Compound 3.91e-7 M,30.53 and 30.32 and 29.72
same,PQS,[5]; Compound 3.91e-7 M,-1.07 and -0.58 and 0.13
same,2-AA,[5]; Compound 7.81e-7 M,26.65 and 26.00 and 18.02
same,DHQ,[5]; Compound 7.81e-7 M,19.73 and 32.57 and 33.17
same,HHQ,[5]; Compound 7.81e-7 M,5.11 and 8.17 and 11.07
same,HQNO,[5]; Compound 7.81e-7 M,30.53 and 30.32 and 29.72
same,PQS,[5]; Compound 7.81e-7 M,-1.07 and -0.58 and 0.13
same,2-AA,[5]; Compound 1.56e-6 M,57.52 and 53.71 and 61.03
same,DHQ,[5]; Compound 1.56e-6 M,42.56 and 47.41 and 47.02
same,HQNO,[5]; Compound 1.56e-6 M,65.26 and 66.09 and 66.02
same,PQS,[5]; Compound 1.56e-6 M,20.92 and 18.95 and 23.15
same,2-AA,[5]; Compound 3.13e-6 M,77.80 and 71.94 and 73.15
same,DHQ,[5]; Compound 3.13e-6 M,23.18 and 25.25 and 33.98
same,HHQ,[5]; Compound 3.13e-6 M,18.71 and 27.16 and 24.99
same,HQNO,[5]; Compound 3.13e-6 M,83.76 and 83.46 and 82.00
same,PQS,[5]; Compound 3.13e-6 M,64.68 and 63.03 and 59.62
same,2-AA,[5]; Compound 6.25e-6 M,94.51 and 93.72 and 94.23
same,DHQ,[5]; Compound 6.25e-6 M,82.36 and 85.39 and 83.09
same,HHQ,[5]; Compound 6.25e-6 M,97.83 and 98.02 and 97.82
same,HQNO,[5]; Compound 6.25e-6 M,95.97 and 95.46 and 95.76
same,PQS,[5]; Compound 6.25e-6 M,95.61 and 95.53 and 95.05
same,2-AA,[5]; Compound 1.25e-5 M,96.17 and 96.56 and 95.88
same,DHQ,[5]; Compound 1.25e-5 M,89.15 and 89.66 and 90.01
same,HHQ,[5]; Compound 1.25e-5 M,98.67 and 99.17 and 97.08
same,HQNO,[5]; Compound 1.25e-5 M,97.36 and 97.63 and 97.60
same,PQS,[5]; Compound 1.25e-5 M,98.30 and 97.73 and 97.38
same,2-AA,[5]; Compound 2.5e-5 M,96.54 (2×) and 95.16
same,DHQ,[5]; Compound 2.5e-5 M,90.35 and 91.27 and 89.56
same,HHQ,[5]; Compound 2.5e-5 M,99.13 (2×) and 96.58
same,HQNO,[5]; Compound 2.5e-5 M,97.58 and 97.87 and 97.81
same,PQS,[5]; Compound 2.5e-5 M,98.11 and 97.67 and 97.24
same,2-AA,[5]; Compound 5e-5 M,97.65 and 97.17 and 97.36
same,DHQ,[5]; Compound 5e-5 M,92.04 and 92.63 and 92.02
same,HHQ,[5]; Compound 5e-5 M,98.82 and 99.10 and 99.16
same,HQNO,[5]; Compound 5e-5 M,98.11 and 98.35 and 97.80
same,PQS,[5]; Compound 5e-5 M,97.51 and 97.36 and 96.79
same,AA,[5]; Compound 1.25E-05 M,599.608 and 615.624 and 726.139
same,AA,[5]; Compound 1.56E-06 M,43.3838 and 42.5844 and 52.2801
same,AA,[5]; Compound 1.95E-07 M,66.4944 and 66.9002 and 61.8554
same,AA,[5]; Compound 2.50E-05 M,648.607 and 690.995 and 748.985
same,AA,[5]; Compound 3.13E-06 M,37.3675 and 38.4724 and 34.81
same,AA,[5]; Compound 4.88E-08 M,60.2138 and 71.5203 and 96.3706
same,AA,[5]; Compound 5.00E-05 M,538.963 and 599.424 and 657.09
same,AA,[5]; Compound 6.25E-06 M,537.56 and 609.034 and 598.829
same,AA,[5]; Compound 7.81E-07 M,70.2961 and 63.8933 and 86.4668
same,AA,[5]; Compound 9.77E-08 M,72.0385 and 90.409 and 103.511
same,activity at 50 µM,"[5]; PA14, read-out: % Production 2-AA",7%
same,activity at 50 µM,"[5]; PA14, read-out: % Production AA",832%
same,activity at 50 µM,"[5]; PA14, read-out: % Production DHQ",7%
same,activity at 50 µM,"[5]; PA14, read-out: % Production HHQ",1%
same,activity at 50 µM,"[5]; PA14, read-out: % Production HQNO",14%
same,activity at 50 µM,"[5]; PA14, read-out: % Production PQS",4%
same,IC50,"[5]; PA14, read-out: AA, dose-dependent production (IC50 curve)",4700 nM
same,inhibition at 50 µM,"[5]; PA14, read-out: HHQ production inhibition",89 to 99%
same,inhibition at 50 µM,"[5]; PA14, read-out: HQNO production inhibition",40 to 92%
same,IC50,"[5]; PA14, read-out: IC50 against 2-AA production",1500 nM
same,IC50,"[5]; PA14, read-out: IC50 against DHQ production",4140 nM
same,IC50,"[5]; PA14, read-out: IC50 against HHQ production",3100 nM
same,IC50,"[5]; PA14, read-out: IC50 against HQNO production",1300 nM
same,IC50,"[5]; PA14, read-out: IC50 against PQS production",2100 nM
same,inhibition at 50 µM,"[5]; PA14, read-out: PQS production inhibition",76 to 97%
same,inhibition at 50 µM,"[5]; PA14, read-out: inhibition of 2-AA production",82 to 95%
same,inhibition at 50 µM,"[5]; PA14, read-out: inhibition of DHQ production",82 to 96%
same,activity at 10 µM,[6],34.2%
same,activity at 50 µM,"[7]; Pseudomonas aeruginosa, PA14, read-out: % Production pqsA-GFP",2%
same,IC50,"[7]; Pseudomonas aeruginosa, PA14, read-out: IC50 pqsA-GFP expression, PA14, 13 concentrations",1360 nM
same,IC50,"[7]; read-out: IC50 pqsA-GFP expression, PA14, 13 concentrations",1310 nM
same,solubility at 4 h,"[8]; aqueous with cosolvent or surfactant or cyclodextrin, kinetic from dmso stock, iPBS pH 7.4, HPLC, read-out: Solubility (M) in PBS",0.00049 M
same,solubility at 4 h,"[8]; pH 7.4, HPLC, read-out: solubility",0.00049 M
same,inhibition at 10 µM,[9],≥ 76%
